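Values below derive from 48-hour exposures of cells grown in 96-well plates, with endpoints linearly interpolated between the two concentrations bracketing the appropriate inhibition level. GI50: concentration for 50% inhibition of growth. The concentration for full growth arrest is given as TGI.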
Experiments:
Experiment in all cases: inhibition of tumour cell growth, NCI panel, 48 h
NCI-H23 lung = test system: NCI-H23 lung
SF-268 CNS = test system: SF-268 CNS
MOLT-4 leukemia = test system: MOLT-4 leukemia
PC-3 prostate = test system: PC-3 prostate
RPMI-8226 leukemia = test system: RPMI-8226 leukemia
OVCAR-5 ovarian = test system: OVCAR-5 ovarian
A498 renal = test system: A498 renal
U251 CNS = test system: U251 CNS
HL-60(TB) leukemia = test system: HL-60(TB) leukemia
KM12 colon = test system: KM12 colon
UO-31 renal = test system: UO-31 renal
OVCAR-8 ovarian = test system: OVCAR-8 ovarian
RXF 393 renal = test system: RXF 393 renal
MALME-3M melanoma = test system: MALME-3M melanoma
LOX IMVI melanoma = test system: LOX IMVI melanoma
CAKI-1 renal = test system: CAKI-1 renal
TK-10 renal = test system: TK-10 renal
SF-295 CNS = test system: SF-295 CNS
HS 578T breast = test system: HS 578T breast
K-562 leukemia = test system: K-562 leukemia
DU-145 prostate = test system: DU-145 prostate
CCRF-CEM leukemia = test system: CCRF-CEM leukemia
SR leukemia = test system: SR leukemia
OVCAR-4 ovarian = test system: OVCAR-4 ovarian
HT29 colon = test system: HT29 colon
NCI-H226 lung = test system: NCI-H226 lung
SF-539 CNS = test system: SF-539 CNS
T-47D breast = test system: T-47D breast
UACC-62 melanoma = test system: UACC-62 melanoma

Compound `COc1cc(N=Nc2ccc(O)c3ncccc23)c2ncccc2c1` has a GI50 (NCI-H23 lung) of 3.75 µM, a TGI (NCI-H23 lung) of over 100 µM and a GI50 (SF-268 CNS) of 2.81 µM. For the same compound, the TGI (SF-268 CNS) was over 100 µM, the GI50 (MOLT-4 leukemia) was 3.5 µM and the TGI (MOLT-4 leukemia) was over 100 µM. The GI50 (PC-3 prostate) was 2.84 µM, the TGI (PC-3 prostate) was over 100 µM and the GI50 (RPMI-8226 leukemia) was 2.97 µM. The TGI (RPMI-8226 leukemia) was over 100 µM, the GI50 (OVCAR-5 ovarian) was 7.3 µM and the TGI (OVCAR-5 ovarian) was over 100 µM. For the same compound, the GI50 (A498 renal) was 24.2 µM, the TGI (A498 renal) was 93.5 µM and the GI50 (U251 CNS) was 3.43 µM. It also gave a TGI (U251 CNS) of over 100 µM, a GI50 (HL-60(TB) leukemia) of 2.47 µM and a TGI (HL-60(TB) leukemia) of 9.16 µM. The GI50 (KM12 colon) was 4.21 µM, the TGI (KM12 colon) was over 100 µM and the GI50 (UO-31 renal) was 2.56 µM. The TGI (UO-31 renal) was 25.3 µM, the GI50 (OVCAR-8 ovarian) was 3.73 µM and the TGI (OVCAR-8 ovarian) was over 100 µM. The GI50 (RXF 393 renal) was 2.72 µM, the TGI (RXF 393 renal) was 28.2 µM and the GI50 (MALME-3M melanoma) was 4.03 µM. The TGI (MALME-3M melanoma) was 33.7 µM, the GI50 (LOX IMVI melanoma) was 2.13 µM and the TGI (LOX IMVI melanoma) was over 100 µM. The GI50 (CAKI-1 renal) was 1.83 µM, the TGI (CAKI-1 renal) was over 100 µM and the GI50 (TK-10 renal) was 9.81 µM. The TGI (TK-10 renal) was over 100 µM, the GI50 (SF-295 CNS) was 18.5 µM and the TGI (SF-295 CNS) was over 100 µM. It also gave a GI50 (HS 578T breast) of 4.67 µM, a TGI (HS 578T breast) of over 100 µM and a GI50 (K-562 leukemia) of 3.44 µM. The TGI (K-562 leukemia) was over 100 µM, the GI50 (DU-145 prostate) was 4.06 µM and the TGI (DU-145 prostate) was over 100 µM. It also gave a GI50 (CCRF-CEM leukemia) of 0.459 µM, a TGI (CCRF-CEM leukemia) of over 100 µM and a GI50 (SR leukemia) of 2.2 µM. For the same compound, the TGI (SR leukemia) was over 100 µM, the GI50 (OVCAR-4 ovarian) was 1.68 µM and the TGI (OVCAR-4 ovarian) was over 100 µM. For the same compound, the GI50 (HT29 colon) was 6.65 µM, the TGI (HT29 colon) was over 100 µM and the GI50 (NCI-H226 lung) was 6.07 µM. It also gave a TGI (NCI-H226 lung) of over 100 µM, a GI50 (SF-539 CNS) of 2.95 µM and a TGI (SF-539 CNS) of 14 µM. It also gave a GI50 (T-47D breast) of 3.23 µM, a TGI (T-47D breast) of over 100 µM and a GI50 (UACC-62 melanoma) of 2.4 µM.
